# Assay results reported in patent publication US20210100781A1, “TUMOR SUPPRESSION” (Kyoto University, priority 2019, published 2021).
# Experiments:
# [1] = system: E6 and E7 genes of HPV; conditions: known from WO2005/063293, WO2009/020198, Yamamoto et al. 2014; cited from earlier work
# [2] = system: BCBL-1 cells; assay: Intraperitoneal administration to PEL xenograft mouse models; type: in vivo, mice (NOD/SCID mice); conditions: 300 mg/kg bw intraperitoneally three times a week, 45 days
# Description: BCBL-1 cells were intraperitoneally inoculated into immunodeficient mice (NOD/SCID mice) so that PEL xenograft models were produced. PEL refers to “primary effusion lymphoma”, as described above. The mice were divided into a compound A administered group and a control group. […] To the control group, PBS was administered intraperitoneally three times a week instead of the compound A. Exemplary results thereof are shown in FIG. 5.
# [3] = system: KSHV; assay: Viruses in ascites and plasma of PEL xenograft mice; type: in vivo, mice (NOD/SCID mice); conditions: 300 mg/kg bw intraperitoneally three times a week, 45 days
# Description: BCBL-1 cells were intraperitoneally inoculated into immunodeficient mice (NOD/SCID mice) so that PEL xenograft models were produced. PEL refers to “primary effusion lymphoma”, as described above.
# The mice were divided into a compound A administered group and a control group. […] To the control group, PBS was administered intraperitoneally three times a week instead of the compound A. Exemplary results thereof are shown in FIG. 5.
# Viruses in ascites and plasma of the above-described mice were detected.
# [4] = system: KSHV; assay: Suppression of viral replication: KSHV copy number by real-time PCR; type: cell-based; conditions: BCBL-1 cells undergoing lytic induction, 96 hours, compound increased to 5 μM and to 10 μM
# Description: Effects of the compound A on the KSHV copy number were analyzed by real-time PCR.
# The compound A was added to the BCBL-1 cells undergoing lytic induction and cultured for 96 hours; then, DNA samples were collected and analyzed by real-time PCR.
# [5] = system: lytic genes; assay: Suppression of lytic induction in KSHV+ PEL cells (RT-PCR and Western blotting); type: cell-based; conditions: BC-3 cells and BCBL-1 cells undergoing lytic induction, 48 hours
# Source text: Both of the BC-3 cells and the BCBL-1 cells are cell lines of KSHV^+ PEL cells. Regarding the BC-3 cells, it is known that TPA (12-O-tetradecanoylphorbol-13-acetate) and SB (sodium butyrate) cause cytokine stimulation, which results in the lytic induction. Further, regarding the BCBL-1 cells, it is known that VPA (valproic acid) causes cytokine stimulation, which results in the lytic induction.
# Such cytokine stimulation was given to the BC-3 cells and the BCBL-1 cells, and the cells were cultured for 24 hours or 48 hours. Then, RNA of the same was collected, and was subjected to RT-PCR.
# Effects of the compound A (the compound A produced in Production Example 1, also described as “Cp. A”) were confirmed by using the same BC-3 cells and BCBL-1 cells as those in Reference Example 1.
# The compound A was added to the BC-3 cells and the BCBL-1 cells undergoing lytic induction and cultured for 48 hours; then, the cultured cells were analyzed by RT-PCR and Western blotting.
compound,measurement,setting,value
"Fc1ccc(N2CCCCC2)c(NC(=S)c2ccncc2)c1 [compound A, N-[5-fluoro-2-(1-piperidinyl)phenyl]-4-pyridinethioamide]",expression of the E6 and E7 genes of HPV,[1],suppress
same,p53 gene stabilization,[1],stabilize
same,amount of ascites,[2]; vs control group (PBS),significantly less
same,enlarged spleen,"[2]; vs control group, data not shown",particularly suppressed
same,amount of viruses in ascites,[3]; ascites,significantly decrease
same,amount of viruses in plasma,[3]; plasma,significantly decrease
same,virus copy number (real-time PCR),[4],decreased
same,expression of the lytic genes at protein level (Western blotting),[5],suppressed
same,expression amount of lytic genes (RT-PCR),[5]; compound increased to 5 μM and to 10 μM,decreased
